The values that follow come from patent publication US20090264392A1, “TREATING EOSINOPHILIC ESOPHAGITIS” (Meritage Pharma, Inc., priority 2008, published 2009).

The test system of data set [1] is eosinophilic esophogitis (EoE) patients. Nature of the data set: Example 1: budesonide gel therapy in patients with EoE. The conditions noted are these: tolerance comparison; seven patients who received fluticasone and budesonide therapy. It is filed as in vivo, human. The procedure: Eighteen patients were entered into the study (mean age 41; 5 females; 13 males). 16 patients had more than 15 eos/HPF on tissue obtained from the esophagus by biopsy during endoscopy. […] Both these patients responded completely to steroids. The mean serum eosinophil count was 215. Three patients had normal endoscopies. Six patients had strictures. […] Mucosal fragility was described in one patient. […] 14 patients underwent allergy testing.
The following symptoms were recorded: dysphagia (18/18), heartburn (9/18), regurgitation (4/18), asthma (5/18), allergic skin disease (1/18), seasonal allergies (8/18), proton pump inhibitor (PPI) medication use to treat esophageal reflux disease (10/18), and history of food impaction (15/18).
Budesonide gel (3 mg/10 mL Rincinol) was formulated as provided below. Preparation involved accurate weighing and measuring of the ingredients. Trituration of the powder into the Rincinol liquid was performed using geometric dilution techniques. The product was stirred using a stir plate, packaged, and labeled.
The standard dose was 3 mg twice a day for one week, which was then decreased to once a day for six weeks. 11 of 18 patients received standard dosing. Six of 18 patients received an alternate treatment regiment of 3 mg twice a day for a variable treatment period of time of greater than one week. The longest of which was eight months. […]

Data set [2] relates to patients with greater than 15 eos/HPF and solid food dysphagia (EoE). Nature of the data set: Example 2: BRG therapy of eosinophilic esophagitis in adults. Particulars: 8 patients who had previously received fluticasone. It is filed as in vivo, human. The protocol:
An oral gel combining budesonide with the mucosal adherent preparation Rincinol (the combination referred to as “BRG”) was compounded. Patients with abnormal Mayo dysphagia questionnaires underwent EGD with biopsies. 16 patients with greater than 15 eos/HPF and solid food dysphagia were enrolled in the study and treated with BRG. Patients were instructed to take BRG 3mg/10 cc BID. If patients noted marked improvement at one week, they were switched to once daily BRG for 6 weeks; otherwise they were continued on BID BRG for a total of 6 weeks. Dysphagia symptoms and BRG side effects over the last two weeks of treatment were assessed by personal interview. Symptoms were evaluated on a scale of dysphagia resolution: <25%, 25-49%, 50-74%, 75-99% or complete resolution. Those patients, who had previously utilized topical fluticasone for EoE, were asked to compare BRG vs topical fluticasone with respect to treatment effect and tolerance.

As to `C[C@@H]1C[C@H]2[C@@H]3C[C@H](F)C4=CC(=O)C=C[C@]4(C)[C@@]3(F)[C@@H](O)C[C@]2(C)[C@@]1(O)C(=O)SCF` [fluticasone], the “patients who preferred fluticasone” value in data set [1] is given as “Two of the seven”. Further, the “patients who favored fluticasone (tolerance)” value in data set [2] is 25%.
